# From patent US8822508B2, “2-oxo-1-pyrrolidinyl imidazothiadiazole derivatives” (UCB Pharma, S.A., priority 2009, dated 2014)
# Conditions: Gower A. J. et al., Eur. J. Pharmacol. (1992), 222, 193-203; cited from earlier work
row,Compound,activity in the treatment of epilepsy (seizure control)
1,CC[C@H](C(N)=O)N1CCCC1=O [(R)-α-ethyl-2-oxo-1-pyrrolidine acetamide],completely lacks activity

# Conditions: not given
row,Compound,melting point [°C]
1,"COCc1nn2c(CN3CC(CC(C)(F)F)CC3=O)c(C(F)(F)F)nc2s1 (single isomer, unassigned; (-)) [Compound 3, (−)-4-(2,2-difluoropropyl)-1-{[2-(methoxymethyl)-6-(trifluoromethyl)imidazo[2,1-b][1,3,4]thiadiazol-5-yl]methyl}pyrrolidin-2-one]",67
2,"COCc1nn2c(CN3C[C@@H](CC(F)(F)F)CC3=O)c(C(F)(F)F)nc2s1 [Compound 11, (4R)-1-{[2-(methoxymethyl)-6-(trifluoromethyl)imidazo[2,1-b][1,3,4]thiadiazol-5-yl]methyl}-4-(2,2,2-trifluoroethyl)pyrrolidin-2-one]",72
3,"COCc1nn2c(CN3CC(CCC(F)(F)F)CC3=O)c(Cl)nc2s1 (single isomer, unassigned; (+)) [Compound 27, (+)-1-{[6-chloro-2-(methoxymethyl)imidazo[2,1-b][1,3,4]thiadiazol-5-yl]methyl}-4-(3,3,3-trifluoropropyl)pyrrolidin-2-one]",60
4,"COCc1nn2c(CN3C[C@H](CC(F)(F)F)CC3=O)c(C(F)(F)F)nc2s1 [Compound 12, (4S)-1-{[2-(methoxymethyl)-6-(trifluoromethyl)imidazo[2,1-b][1,3,4]thiadiazol-5-yl]methyl}-4-(2,2,2-trifluoroethyl)pyrrolidin-2-one]",73
5,"COCc1nn2c(CN3CC(CC(F)(F)Cl)CC3=O)c(C(F)F)nc2s1 (single isomer, unassigned; (+)) [Compound 23, (+)-4-(2-chloro-2,2-difluoroethyl)-1-{[6-(difluoromethyl)-2-(methoxymethyl)imidazo[2,1-b][1,3,4]thiadiazol-5-yl]methyl}pyrrolidin-2-one]",73
6,"O=C1C[C@H](CC(F)(F)Cl)CN1Cc1c(C(F)(F)F)nc2sc(CO)nn12 [Compound 8, (4R)-4-(2-chloro-2,2-difluoroethyl)-1-{[2-(hydroxymethyl)-6-(trifluoromethyl)imidazo[2,1-b][1,3,4]thiadiazol-5-yl]methyl}pyrrolidin-2-one]",154
7,"COCc1nn2c(CN3CC(CC(C)(F)F)CC3=O)c(C(F)(F)F)nc2s1 (single isomer, unassigned; (+)) [Compound 2, (+)-4-(2,2-difluoropropyl)-1-{[2-(methoxymethyl)-6-(trifluoromethyl)imidazo[2,1-b][1,3,4]thiadiazol-5-yl]methyl}pyrrolidin-2-one]",70
